Test results from US9012178B2, “Dipeptides to enhance yield and viability from cell cultures” (Amgen Inc., priority 2010, dated 2015).
Values after ≈ are worked out from the molar mass of the structure shown. Where a SMILES comes first, the peptide text is derived from it.

Experiments:
[1] = Solubility of tyrosine-containing dipeptides
CHO cell line C = experiment: Fed-batch shake flask production culture in serum-free defined medium: titer, viability, growth, metabolic profiles; assay type: cell-based, Chinese hamster; settings: for day 11 titer: cell line C, culture period 11 days (Example 4, FIG. 5)
Experimental: (§1) Materials and Methods: Dipeptides were purchased from Bachem (Torrance, Calif.). Each dipeptide was dissolved in water for preparation of concentrated stock solution (100 mg/mL), followed by sterile filtration using Spin-X® filter unit (Corning Inc., Corning, N.Y.).
(§2) On Day 0, prior to inoculation of production cell lines, appropriate volumes of concentrated dipeptide stock solution were added to serum-free defined production medium to bring the final dipeptide concentration at 0.5-2.0 g/L. For controls, the same volume of water was added. Cells were inoculated at 5×10^5 cells/mL with the final culture volume of 50 mL in 250 mL flasks. The shaker flasks cultures were grown in the incubator at 36° C., with 5% CO2 and agitation rate of 160 rpm.
(§3) Cultures were fed with bolus defined feed media on Days 3, 6, and 8 with the feed volume of 5-6% on Day 3, 9% on Day 6 and 9% on Day 8. Cultures were stopped and harvested on Day 11. However, if the culture viability on Day 11 was >70%, culture duration was extended beyond day 11 by introducing 4th feed on Day 11 and 5th feed on day 13 if necessary. Feed volume on Day 11 ranged from 5% to 8%, depending on the culture performance. Day 13 feed ranged from 2.5% to 3.0%. Glucose was fed as needed with typical target concentration of 7-8 g/L.
(§4) On selective days during the production run, small volumes of cultures were taken out to assess viable cell density and % viability using the CEDEX cell counter (Roche Innovatis AG). Titer was also determined on collected samples, using the high-throughput HPLC analytical method.
Materials and Methods: CHO cell line C was cultured as in Example 2. The dipeptides tested were Tyr-Lys, Thr-Phe, His-Gly, Tyr-Ala, Gly-His, Tyr-His, Tyr-Val, and a combination of Tyr-His and Thr-Phe. The culture period was 11 days, at which point titer and viability were assessed.
Materials and Methods: CHO cell line C was used for this experiment, and cultured as in Example 2. Titer, viability, viable cell density, specific productivity, and cell diameter were determined each day from day 6 to 13 or 14 of cell culture. Tyr-His dipeptide was tested at 0.5 g/L and 1 g/L, and compared to the addition of no dipeptide.

CHO cell line D = experiment: 6-day batch culture in serum-free defined production medium: titer and viability; assay type: cell-based, Chinese hamster; settings: 1 to 4 g/L, 6 days batch culture; for titer: over the negative control
Experimental: Materials and Methods: CHO cell line D, which produces a fully human recombinant antibody, was used for this experiment. Cells were inoculated at 2×10^6 cells/mL with a final culture volume of 2.0 mL into serum-free defined production medium. Experimental samples contained the dipeptides His-Glu, Glu-His, His-Ser, and His-Gln from 1 to 4 g/L. Control wells were set up containing either no added dipeptide as a negative control, or containing peptone at 10 g/L as a positive control. The cultures were incubated as a batch culture for 6 days, at which point the cells were harvested and titer and viability determined.

[2] = reference #1; cited from earlier work
CHO cell line A = experiment: Fed-batch shake flask production culture in serum-free defined medium: titer and viability; assay type: cell-based, Chinese hamster; settings: culture period 13 to 14 days
Experimental: as §1, §2, §3, §4
Materials and Methods: CHO cell line A was cultured as in Example 2. The effect of dipeptide Ala-His (added at 1 g/L) was compared to no added dipeptide (control) and dipeptide His-Gly. The culture period was 13 to 14 days, at which point titer and viability were assessed.

CHO cells = experiment: Recombinant protein expression from CHO cells in chemically defined medium (summary statements); assay type: cell-based, Chinese hamster; settings: two different CHO cell lines expressing two different recombinant antibodies
[3] = supplement by itself in serum-free, peptone-free production medium

Compound | day 11 titer (CHO cell line C) | viability (CHO cell line D) | titer (CHO cell line D) | other results
CSCC[C@H](N)C(=O)N[C@@H](Cc1ccc(O)cc1)C(=O)O [Met-Tyr] (H-Met-Tyr-OH; N-terminus and C-terminus assumed) | – | – | – | Solubility tested [1]: Not soluble
Tyr-Ala | significantly improved titer | – | – | –
His-Glu | – | significantly improved | not significantly increased | –
Thr-Phe | little to no effect | – | – | recombinant protein production (CHO cell line C; [3]): little to no effect; viability (CHO cell line C; [3]): little to no effect
His-Gln | – | significantly improved | not significantly increased | –
N[C@@H](Cc1ccc(O)cc1)C(=O)N[C@@H](Cc1c[nH]cn1)C(=O)O [Tyr-His] (H-Tyr-His-OH; N-terminus and C-terminus assumed) | – | – | – | Solubility (g/L)- ref. #1 [2]: 100 g/L (≈ 314 mM); Solubility tested [1]: readily soluble
Glu-His | – | significantly improved | not significantly increased | –
Tyr-Val | significantly improved titer | – | – | –
NCCCC[C@H](NC(=O)[C@@H](N)Cc1ccc(O)cc1)C(=O)O [Tyr-Lys] (H-Tyr-Lys-OH; N-terminus and C-terminus assumed) | – | – | – | Solubility (g/L)- ref. #1 [2]: 81 g/L (≈ 262 mM); Solubility tested [1]: readily soluble
Ala-His | – | – | – | viability (CHO cell line A; Ala-His added at 1 g/L): maintain increased viability; titer (CHO cell line A; Ala-His added at 1 g/L, vs control): also improved titer, but not as much as His-Gly
His-Ser | – | significantly improved | not significantly increased | –
His-Gly | moderately improved titer | – | – | viability (CHO cell line A; Ala-His added at 1 g/L): better at maintaining viability; titer improvement as compared to control (CHO cell line A): more than 10%; productivity and culture performance (CHO cells): improve productivity and culture performance
Gly-His | adversely affected titer | – | – | productivity and culture performance (CHO cells): negative effect
